# Key:
# SPR [1] = target: T1, SPR (Rattus norvegicus, UniProt P18297); test: Cellular SPR activity: BH2 formation from sepiapterin in the presence of methotrexate, PC12 cells; assay type: cell-based; settings: PC12 (rat pheochromocytoma); with methotrexate
# T1 construct: endogenous in cells; host or cells: PC12
# Procedure: The growth medium was then removed and the cells incubated with growth medium containing 100 μM sepiapterin. […] BH2 and BH4 were then analyzed on a Jasco high-performance liquid chromatography system (Easton, MD) fitted with a Maxsil-10 C18 column (250 × 4 mm; Phenomenex, Torrance, CA). […] Cell viability following drug treatments was greater than 95 %.
# SPR [2] = target: SPR (Homo sapiens, UniProt P35270); test: Chemical (menadione) redox cycling by recombinant SPR, superoxide anion formation; assay type: biochemical; set-up: made in house; settings: acetylated cytochrome c reduction at 550 nm, pH 7.8, read-out: IC50, inhibition of chemical redox cycling (superoxide anion production) by recombinant SPR
# Procedure: Sepiapterin reductase activity was assayed by measuring decreases in sepiapterin absorbance at 420 nm as described by Kato ([Kato, 1971]) with some modifications. Briefly, standard reaction mixes contained 100 mM potassium phosphate buffer, pH 7.0, 100 μM NADPH, 50 μM sepiapterin and 1 μg of enzyme protein in a final volume of 0.2 ml. Changes in absorbance of sepiapterin were monitored using a Spectramax M5 microplate reader (Molecular Devices, Sunnyvale, CA). […] Chemical redox cycling by SPR was assayed by measuring the formation of superoxide anion in the presence of menadione as previously described ([Yang et al., 2013]). […] Superoxide anion was measured spectrophotometrically by the reduction of acetylated cytochrome c at 550 nm. DHFR activity was measured as previously described ([Whitsett et al., 2013]) with some modifications. […] Enzyme activity was monitored by decreases in absorbance of NADPH at 340 nm using a microplate reader. […]
# Fig. 5. […] SPR was measured in enzyme assays by decreases in sepiapterin absorbance at 420 nm as described in the Materials and Methods. DHFR activity in enzyme assays was measured by decreases in absorbance of NADPH at 340 nm. […] Redox cycling was measured spectrophotometrically by the reduction of acetylated cytochrome c at 550 nm during the formation of superoxide anion in enzyme assays in the presence of 100 μM menadione.
# T1 sequence (P18297 whole entry): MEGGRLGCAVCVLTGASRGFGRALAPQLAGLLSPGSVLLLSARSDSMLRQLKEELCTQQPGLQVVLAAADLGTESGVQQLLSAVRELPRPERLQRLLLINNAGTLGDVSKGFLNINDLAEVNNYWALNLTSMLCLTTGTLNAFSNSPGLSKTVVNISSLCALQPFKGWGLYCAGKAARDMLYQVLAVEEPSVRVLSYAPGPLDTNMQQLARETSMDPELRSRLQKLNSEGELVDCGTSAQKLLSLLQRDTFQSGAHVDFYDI
# Sequence of SPR (Homo sapiens, UniProt P35270) (P35270 whole entry): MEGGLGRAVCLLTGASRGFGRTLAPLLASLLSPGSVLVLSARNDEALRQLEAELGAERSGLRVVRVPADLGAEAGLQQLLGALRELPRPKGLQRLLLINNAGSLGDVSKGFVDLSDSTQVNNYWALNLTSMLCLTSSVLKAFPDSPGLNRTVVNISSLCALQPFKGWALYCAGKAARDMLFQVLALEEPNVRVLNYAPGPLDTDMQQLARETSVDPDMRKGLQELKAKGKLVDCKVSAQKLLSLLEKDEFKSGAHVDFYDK
structure (smiles),measurement,setting,value
"CC[PH](CC)(CC)[Au][S][C@@H]1O[C@H](COC(C)=O)[C@@H](OC(C)=O)[C@H](OC(C)=O)[C@H]1OC(C)=O [auranofin, 2,3,4,6-tetra-O-acetyl-1-thio-β-D-glucopyranosato-S-triethyl phosphine gold]",IC50,SPR [1],1000 ± 110 nM
same,IC50,SPR [2],600 nM

# From article PMC13249053, “Mechanism of auranofin toxicity: Inhibition of tetrahydrobiopterin metabolism” (Toxicology and applied pharmacology, 2025)
